This is an account of results in ChEMBL document CHEMBL5528043, “Development of Potent Mcl-1 Inhibitors: Structural Investigations on Macrocycles Originating from a DNA-Encoded Chemical Library Screen” (J Med Chem, 2024).

The target in the experiment is Induced myeloid leukemia cell differentiation protein Mcl-1 (Homo sapiens, UniProt Q07820). Kind of experiment: Inhibition of Mcl-1 (172-327) (unknown origin) using BIOTIN-AHXGQVGRQLAIIGDDINR-amide peptide by TR-FRET based BAK peptide displacement assay.
Sequence of Induced myeloid leukemia cell differentiation protein Mcl-1 (Q07820 whole entry): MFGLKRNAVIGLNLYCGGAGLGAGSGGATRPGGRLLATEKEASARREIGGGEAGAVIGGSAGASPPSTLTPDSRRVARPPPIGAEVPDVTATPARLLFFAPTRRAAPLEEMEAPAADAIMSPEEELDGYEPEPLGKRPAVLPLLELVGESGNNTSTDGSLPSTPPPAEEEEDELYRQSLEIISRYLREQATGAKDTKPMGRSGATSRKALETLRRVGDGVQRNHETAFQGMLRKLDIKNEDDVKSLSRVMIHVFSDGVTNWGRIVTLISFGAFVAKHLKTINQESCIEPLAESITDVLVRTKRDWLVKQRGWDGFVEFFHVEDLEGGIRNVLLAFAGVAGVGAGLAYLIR
One may read the IC50 as the concentration at which inhibition is half-maximal. High values mean a need for much substance, low ones inhibition by little substance. `CCOc1cccc2c1OCC(=O)N[C@H]1CC[C@H](CC1)CC(=O)N[C@@H](CC1CCCCC1)C(=O)N[C@H](Cc1ccccc1)C(=O)N[C@H](C(=O)NC)Cc1ccc(cc1)OC2` displayed a concentration for half-maximal inhibition (IC50) of 101 nM.
Turning to `CCOc1cccc2c1OCC(=O)N[C@H]1CC[C@H](CC1)CC(=O)N[C@@H](CC1CCCCC1)C(=O)N[C@H](CC1CCCCC1)C(=O)N[C@H](C(=O)NC)Cc1ccc(cc1)OC2`, the IC50 came out at 271 nM.
Next, `CCOc1cccc2c1OCC(=O)N[C@H]1CC[C@H](CC1)CC(=O)N(c1ccccc1)CC(=O)N[C@H](Cc1ccccc1)C(=O)NCCc1ccc(cc1)OC2`: above 30000 nM.
The same measure for `CCOc1cccc2c1OC(C)(C)C(=O)N[C@H]1CC[C@H](CC1)CC(=O)N[C@@H](c1ccccc1)C(=O)N[C@H](CC1CCCCC1)C(=O)NCCc1ccc(cc1)OC2`: 124 nM; for `CCOc1cccc2c1OCC(=O)N[C@H]1CC[C@H](CC1)CC(=O)N[C@@H](CC(C)C)C(=O)N[C@H](Cc1ccccc1)C(=O)NCCc1ccc(cc1)OC2`: 90 nM.
As for `O=C1C[C@H]2CC[C@H](CC2)NC(=O)COc2c(Cl)cccc2COc2ccc(cc2)CCNC(=O)[C@@H](Cc2ccccc2)NC(=O)[C@H](c2ccccc2)N1`, the IC50 is 78 nM.
The same measure for `CCOc1cccc2c1OC(C)(C)C(=O)N[C@H]1CC[C@H](CC1)CC(=O)N[C@@H](C(C)C)C(=O)N[C@H](Cc1ccccc1)C(=O)NCCc1ccc(cc1)OC2`: 137 nM.
Next, `CCOc1cccc2c1OCC(=O)N[C@H]1CC[C@H](CC1)CC(=O)N[C@@H](C(C)C)C(=O)N[C@H](Cc1ccccc1)C(=O)N[C@H](C(=O)NC)Cc1ccc(cc1)OC2`: 298 nM.
`CCOc1cccc2c1OCC(=O)N[C@H]1CC[C@H](CC1)CC(=O)N[C@H](c1ccccc1)C(=O)N[C@H](Cc1ccccc1)C(=O)NCCc1ccc(cc1)OC2` displayed a half-maximal inhibitory concentration (IC50) of 7100 nM.
Regarding `CCOc1cccc2c1OCC(=O)N[C@H]1CC[C@H](CC1)CC(=O)N(C)[C@@H](c1ccccc1)C(=O)N[C@H](Cc1ccccc1)C(=O)NCCc1ccc(cc1)OC2`, the IC50 was above 30000 nM.
`COc1cccc2c1OCC(=O)N[C@H]1CC[C@H](CC1)CC(=O)N[C@@H](c1ccccc1)C(=O)N[C@H](Cc1ccccc1)C(=O)NCCc1ccc(cc1)OC2` showed an IC50 of 174 nM.
`CCOc1cccc2c1OCC(=O)N[C@H]1CC[C@H](CC1)CC(=O)N[C@@H](c1ccccc1)C(=O)N[C@H](CC1CCCCC1)C(=O)NCCc1ccc(cc1)OC2` displayed an IC50 of 227 nM.
The same measure for `CCOc1cccc2c1OCC(=O)N[C@H]1CC[C@H](CC1)CC(=O)N[C@@H](c1ccccc1)C(=O)N[C@H](Cc1ccccc1)C(=O)N(C)CCc1ccc(cc1)OC2` (mixture of isomers): 21800 nM; for `CCOc1cccc2c1OCC(=O)N[C@H]1CC[C@H](CC1)CC(=O)N(c1ccccc1)CC(=O)N(Cc1ccccc1)CC(=O)NCCc1ccc(cc1)OC2`: above 30000 nM.
Next, `CC(C)C[C@@H]1NC(=O)C[C@H]2CC[C@H](CC2)NC(=O)COc2c(Cl)cccc2COc2ccc(cc2)CCNC(=O)[C@@H](Cc2ccccc2)NC1=O`: 253 nM; `CCOc1cccc2c1OCC(=O)N[C@H]1CC[C@H](CC1)CC(=O)N[C@@H](C1CCCCC1)C(=O)N[C@H](CC1CCCCC1)C(=O)N[C@H](C(=O)NC)Cc1ccc(cc1)OC2`: 179 nM.
The compound `CCOc1cccc2c1OCC(=O)N[C@H]1CC[C@H](CC1)CC(=O)N[C@@H](c1ccccc1)C(=O)N(Cc1ccccc1)CC(=O)NCCc1ccc(cc1)OC2` came in with a 50% inhibitory concentration (IC50) of 234 nM.
The same measure for `CCOc1cccc2c1OCC(=O)N[C@H]1CC[C@H](CC1)CC(=O)N[C@@H](c1ccccc1)C(=O)N[C@H](CC1CCCCC1)C(=O)N[C@H](C(=O)NC)Cc1ccc(cc1)OC2`: 64 nM; for `CCOc1cccc2c1OCC(=O)N[C@H]1CC[C@H](CC1)CC(=O)N[C@@H](c1ccccc1)C(=O)N(C)[C@H](Cc1ccccc1)C(=O)NCCc1ccc(cc1)OC2`: 382 nM; for `CCOc1cccc2c1OC(C)(C)C(=O)N[C@H]1CC[C@H](CC1)CC(=O)N[C@@H](c1ccccc1)C(=O)N[C@H](Cc1ccccc1)C(=O)NCCc1ccc(cc1)OC2`: 59 nM.
